Tests used:
Assay type in all cases: biochemical
[1] = target: Tyk2 (Homo sapiens, UniProt P29597); assay: JAK kinase inhibition assay (EZ Reader, peptide substrate phosphorylation) - Tyk2; settings: Tyk2 kinase 1 nM; 8 concentration points, max 10 μM
In short: (§1)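 Microfluidic mobility-shift detection of fluorescent peptide substrate phosphorylation, with JAK1 at 20 nM and JAK2, JAK3 and Tyk2 each at 1 nM final, in 20 mM HEPES pH 7.4, 10 mM MgCl2, 1 mM DTT. Reactions run at room temperature to 20–30% conversion, then EDTA-stopped. Compounds tested at 8 three-fold dilutions from 10 μM top final; IC50 from conversion curves.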

[2] = target: T1, JAK3 (Homo sapiens, UniProt P52333); assay: JAK kinase inhibition assay (EZ Reader, peptide substrate phosphorylation) - JAK3; settings: JAK3 kinase 1 nM; 8 concentration points, max 10 μM
T1 sequence (P52333 1-1124): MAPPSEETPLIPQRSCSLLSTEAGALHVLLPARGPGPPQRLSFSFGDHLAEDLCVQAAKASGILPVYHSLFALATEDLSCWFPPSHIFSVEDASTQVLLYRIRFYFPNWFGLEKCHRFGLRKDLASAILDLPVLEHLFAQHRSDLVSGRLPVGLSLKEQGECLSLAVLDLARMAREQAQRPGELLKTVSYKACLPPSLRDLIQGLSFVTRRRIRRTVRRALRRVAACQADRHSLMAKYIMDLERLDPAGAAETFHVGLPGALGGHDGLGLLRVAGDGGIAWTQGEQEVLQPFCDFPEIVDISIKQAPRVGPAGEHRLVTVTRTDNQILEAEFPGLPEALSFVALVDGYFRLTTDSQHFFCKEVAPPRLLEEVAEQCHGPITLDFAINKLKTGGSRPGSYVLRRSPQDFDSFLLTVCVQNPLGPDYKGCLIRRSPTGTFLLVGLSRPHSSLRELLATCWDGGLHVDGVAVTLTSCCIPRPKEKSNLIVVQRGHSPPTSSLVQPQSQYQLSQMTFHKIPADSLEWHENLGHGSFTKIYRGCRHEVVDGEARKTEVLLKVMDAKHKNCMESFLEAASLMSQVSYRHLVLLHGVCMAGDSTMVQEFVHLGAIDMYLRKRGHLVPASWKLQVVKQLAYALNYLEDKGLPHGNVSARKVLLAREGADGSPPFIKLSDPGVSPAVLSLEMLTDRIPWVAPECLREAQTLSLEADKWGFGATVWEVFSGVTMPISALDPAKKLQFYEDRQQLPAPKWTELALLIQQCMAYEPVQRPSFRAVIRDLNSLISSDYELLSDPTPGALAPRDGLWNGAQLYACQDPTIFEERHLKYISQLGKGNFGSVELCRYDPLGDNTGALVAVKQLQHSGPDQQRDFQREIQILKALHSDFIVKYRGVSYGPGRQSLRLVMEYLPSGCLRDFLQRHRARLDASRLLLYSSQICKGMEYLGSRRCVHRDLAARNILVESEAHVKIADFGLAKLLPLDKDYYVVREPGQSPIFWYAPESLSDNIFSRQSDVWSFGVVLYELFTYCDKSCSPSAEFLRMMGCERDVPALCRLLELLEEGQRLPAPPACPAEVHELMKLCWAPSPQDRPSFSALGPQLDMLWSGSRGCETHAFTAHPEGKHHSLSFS
Excerpt: (§2) Assay for Identifying Inhibitory Effects of Compounds on JAK Kinases
(§3) Janus kinases (JAK), including JAK1, JAK2, JAK3 and Tyk2, transduce a cytokine-mediated signal through a JAK-STAT pathway. The kinases are 120-140 kDa in size and have 7 determined homology regions: JH1 to JH7. JH1 is an important region for enzymatic activity and has typical characteristics of tyrosine kinases. Phosphorylation of tyrosine leads to a change in the conformation of JAK protein, thereby promoting binding of substrate. The JAK-STAT system includes three main parts: receptors penetrating a cell membrane, Janus kinases binding to the receptors, and signal transducers and activators of transcription (STAT) for transmitting signals to a nucleus and DNA. When cytokines bind to receptors, JAK phosphorylates the receptors and attracts STAT proteins. The STAT proteins are also phosphorylated and combined with one another to form dimers. The dimers enter the nucleus and bind to DNA, thereby leading to gene transcription.
(§4) EZ Reader from PerkinElmer can be used to detect the phosphorylation of polypeptide substrates catalyzed by kinases. The device is based on microfluidic techniques, and can directly detect fluorescently labeled substrates and products. The separation step is achieved by controlling the pressure and electric field strength in the microfluidic chip. In kinase assays, a product conversion ratio is usually controlled to be 20-30%. A biological test is used to identify inhibitory effects of compounds on JAKs.
(§5) Compound powder was dissolved in DMSO, sealed and stored in a freezer under −20° C. The in-house compound Ref1 was used as a positive control for JAK1, JAK2 and Tyk2 tests, and Ref2 was used as a positive control for JAK3 tests.
(§6) S2.8. Assay buffer: 20 mM HEPES buffer, pH 7.4, 10 mM magnesium chloride, 0.01% bovine serum albumin BSA, 0.0005% Tween-20 and 1 mM dithiothreitol solution.
(§7) S2.9. Stop buffer: 180 mM HEPES buffer, 20 mM ethylenediaminetetraacetic acid and 0.2% coating reagent 3.
(§8) S2.10. Separation buffer: 100 mM HEPES buffer, 10 mM ethylenediaminetetraacetic acid, 0.0005% Tween 20, 0.1% coating reagent 3 and 1% dimethyl sulfoxide.
The compound was dissolved in dimethyl sulfoxide and diluted to 10 mM concentration, a certain volume of solution was taken and diluted to 0.6 mM concentration, 10 μL of the 0.6 mM dilution was added to a 384-well microplate, and then was diluted 3-fold with a total of 8 concentration points. […]
Positive control (HPE1): Ref2, final concentration: 10 μM
(§9) Negative control (ZPE): DMSO, final content: 1.6%
(§10) Compounds: maximum final concentration: 10 μM; 3-fold dilution, 8 concentration points and 2 duplicates.
(§11) S4.1. 250 nL of the compound was added to each well of the assay microplate by using ECHO, and centrifuged at 1000 rpm for 1 minute.
(§12) S4.2. 5 μL of the assay buffer was added and agitated for a few seconds to fully dissolve the compound.
(§13) S4.3. 5 μL of 3× substrate solution and 5 μL of 3× kinase solution were added and centrifuged at 800 rpm for 1 minute.
(§14) S4.4. Final concentrations of JAK1, JAK2, JAK3 and Tyk2 kinases in the reaction system were 20 nM, 1 nM, 1 nM and 1 nM respectively.
(§15) S4.5. Incubation at room temperature, where kinases had time differences, and different batches of kinases had time differences.
(§16) S4.6. When 20%-30% of the reaction completed, 15 μL of stop buffer was added to stop the reaction, and centrifuged at 1000 rpm for 2 minutes.
(§17) S4.7. The microplates were placed on EZ Reader for reading.
(§18) S4.8. Readings on EZ Reader were calculated by using a peak height, where product conversion ratio (%)=product/(product+substrate)*100.
(§19) 5. Data Processing: IC50 calculation
(§20) A graphing software Xlfit was used to form a concentration curve of the test compound, and an IC50 value was calculated.
(§21) “A” means “≥10 μM”; “B” means “≥1 μM and <10 μM”; “C” means “≥0.1 μM and <1 μM”; and “D” means “<0.1 μM”.

[3] = target: JAK1 (Homo sapiens, UniProt P23458); assay: JAK kinase inhibition assay (EZ Reader, peptide substrate phosphorylation) - JAK1; settings: JAK1 kinase 20 nM; 8 concentration points, max 10 μM
In short: as §1

[4] = target: JAK2 (Homo sapiens, UniProt O60674); assay: JAK kinase inhibition assay (EZ Reader, peptide substrate phosphorylation) - JAK2; settings: JAK2 kinase 1 nM; 8 concentration points, max 10 μM
Excerpt: as §2, §3, §4, §5, §6, §7, §8
The compound was dissolved in dimethyl sulfoxide and diluted to 10 mM concentration, a certain volume of solution was taken and diluted to 0.6 mM concentration, 10 μL of the 0.6 mM dilution was added to a 384-well microplate, and then was diluted 3-fold with a total of 8 concentration points.
Positive control (HPE1): Ref1, final concentration: 10 μM […]
as §9, §10, §11, §12, §13, §14, §15, §16, §17, §18, §19, §20, §21

Chain of JAK1 (P23458 whole entry): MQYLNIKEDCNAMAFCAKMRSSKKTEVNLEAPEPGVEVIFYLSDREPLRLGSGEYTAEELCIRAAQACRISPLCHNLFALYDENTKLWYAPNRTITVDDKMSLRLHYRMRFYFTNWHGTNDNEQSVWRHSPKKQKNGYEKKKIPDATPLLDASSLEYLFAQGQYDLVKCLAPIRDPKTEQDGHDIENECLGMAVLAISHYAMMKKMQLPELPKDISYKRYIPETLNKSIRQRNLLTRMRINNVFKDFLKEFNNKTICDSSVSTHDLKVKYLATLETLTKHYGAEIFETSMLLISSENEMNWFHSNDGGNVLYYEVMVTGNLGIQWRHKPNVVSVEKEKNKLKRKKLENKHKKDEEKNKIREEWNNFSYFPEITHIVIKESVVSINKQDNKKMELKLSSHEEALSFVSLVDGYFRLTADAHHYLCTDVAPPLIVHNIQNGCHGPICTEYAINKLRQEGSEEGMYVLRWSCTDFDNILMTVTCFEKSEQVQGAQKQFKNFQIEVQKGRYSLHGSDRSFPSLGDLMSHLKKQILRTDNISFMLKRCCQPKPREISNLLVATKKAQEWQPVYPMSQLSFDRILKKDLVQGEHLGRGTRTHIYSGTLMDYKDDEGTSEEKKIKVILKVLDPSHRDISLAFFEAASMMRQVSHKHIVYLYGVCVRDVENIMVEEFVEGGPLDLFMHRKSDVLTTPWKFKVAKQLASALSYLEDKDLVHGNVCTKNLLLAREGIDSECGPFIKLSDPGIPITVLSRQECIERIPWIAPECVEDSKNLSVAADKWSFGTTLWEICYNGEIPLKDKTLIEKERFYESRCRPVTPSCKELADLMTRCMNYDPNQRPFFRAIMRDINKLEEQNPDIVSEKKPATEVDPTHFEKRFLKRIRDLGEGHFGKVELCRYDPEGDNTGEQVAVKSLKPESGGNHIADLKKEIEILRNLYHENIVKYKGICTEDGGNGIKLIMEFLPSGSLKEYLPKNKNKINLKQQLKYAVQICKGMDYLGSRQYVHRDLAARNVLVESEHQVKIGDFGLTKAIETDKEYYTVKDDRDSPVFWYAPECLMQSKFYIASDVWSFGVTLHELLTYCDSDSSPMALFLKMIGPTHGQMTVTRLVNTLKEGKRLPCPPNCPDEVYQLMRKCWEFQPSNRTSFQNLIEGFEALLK
Chain of Tyk2 (P29597 whole entry): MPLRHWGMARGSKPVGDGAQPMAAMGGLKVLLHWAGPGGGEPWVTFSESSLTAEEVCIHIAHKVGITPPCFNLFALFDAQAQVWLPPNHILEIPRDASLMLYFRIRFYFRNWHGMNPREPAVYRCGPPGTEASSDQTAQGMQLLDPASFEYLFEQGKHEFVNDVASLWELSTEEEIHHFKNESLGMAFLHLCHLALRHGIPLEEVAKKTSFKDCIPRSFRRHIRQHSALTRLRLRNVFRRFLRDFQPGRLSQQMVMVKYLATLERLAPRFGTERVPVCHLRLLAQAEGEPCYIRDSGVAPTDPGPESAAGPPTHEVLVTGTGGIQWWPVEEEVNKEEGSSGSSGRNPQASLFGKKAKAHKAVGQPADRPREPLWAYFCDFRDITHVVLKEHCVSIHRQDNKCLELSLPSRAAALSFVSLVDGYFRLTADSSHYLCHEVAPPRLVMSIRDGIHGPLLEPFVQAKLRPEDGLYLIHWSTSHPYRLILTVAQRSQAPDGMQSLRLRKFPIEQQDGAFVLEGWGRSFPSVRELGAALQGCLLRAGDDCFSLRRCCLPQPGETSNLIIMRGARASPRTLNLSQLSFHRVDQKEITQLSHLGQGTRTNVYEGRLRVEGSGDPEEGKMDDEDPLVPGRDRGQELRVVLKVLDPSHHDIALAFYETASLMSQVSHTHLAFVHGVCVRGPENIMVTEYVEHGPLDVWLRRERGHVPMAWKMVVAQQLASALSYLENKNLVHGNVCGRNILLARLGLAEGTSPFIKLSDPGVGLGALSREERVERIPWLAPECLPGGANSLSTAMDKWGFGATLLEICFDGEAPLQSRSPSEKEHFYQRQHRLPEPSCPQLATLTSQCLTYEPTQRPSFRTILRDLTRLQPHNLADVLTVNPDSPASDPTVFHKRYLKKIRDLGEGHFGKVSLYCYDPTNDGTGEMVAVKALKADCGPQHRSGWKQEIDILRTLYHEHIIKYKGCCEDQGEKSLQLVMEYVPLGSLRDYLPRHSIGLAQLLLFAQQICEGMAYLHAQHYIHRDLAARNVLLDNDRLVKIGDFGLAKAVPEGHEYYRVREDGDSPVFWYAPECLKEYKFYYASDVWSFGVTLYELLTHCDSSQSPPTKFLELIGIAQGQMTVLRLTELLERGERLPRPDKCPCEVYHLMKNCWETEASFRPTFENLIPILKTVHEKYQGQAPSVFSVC
Chain of JAK2 (O60674 whole entry): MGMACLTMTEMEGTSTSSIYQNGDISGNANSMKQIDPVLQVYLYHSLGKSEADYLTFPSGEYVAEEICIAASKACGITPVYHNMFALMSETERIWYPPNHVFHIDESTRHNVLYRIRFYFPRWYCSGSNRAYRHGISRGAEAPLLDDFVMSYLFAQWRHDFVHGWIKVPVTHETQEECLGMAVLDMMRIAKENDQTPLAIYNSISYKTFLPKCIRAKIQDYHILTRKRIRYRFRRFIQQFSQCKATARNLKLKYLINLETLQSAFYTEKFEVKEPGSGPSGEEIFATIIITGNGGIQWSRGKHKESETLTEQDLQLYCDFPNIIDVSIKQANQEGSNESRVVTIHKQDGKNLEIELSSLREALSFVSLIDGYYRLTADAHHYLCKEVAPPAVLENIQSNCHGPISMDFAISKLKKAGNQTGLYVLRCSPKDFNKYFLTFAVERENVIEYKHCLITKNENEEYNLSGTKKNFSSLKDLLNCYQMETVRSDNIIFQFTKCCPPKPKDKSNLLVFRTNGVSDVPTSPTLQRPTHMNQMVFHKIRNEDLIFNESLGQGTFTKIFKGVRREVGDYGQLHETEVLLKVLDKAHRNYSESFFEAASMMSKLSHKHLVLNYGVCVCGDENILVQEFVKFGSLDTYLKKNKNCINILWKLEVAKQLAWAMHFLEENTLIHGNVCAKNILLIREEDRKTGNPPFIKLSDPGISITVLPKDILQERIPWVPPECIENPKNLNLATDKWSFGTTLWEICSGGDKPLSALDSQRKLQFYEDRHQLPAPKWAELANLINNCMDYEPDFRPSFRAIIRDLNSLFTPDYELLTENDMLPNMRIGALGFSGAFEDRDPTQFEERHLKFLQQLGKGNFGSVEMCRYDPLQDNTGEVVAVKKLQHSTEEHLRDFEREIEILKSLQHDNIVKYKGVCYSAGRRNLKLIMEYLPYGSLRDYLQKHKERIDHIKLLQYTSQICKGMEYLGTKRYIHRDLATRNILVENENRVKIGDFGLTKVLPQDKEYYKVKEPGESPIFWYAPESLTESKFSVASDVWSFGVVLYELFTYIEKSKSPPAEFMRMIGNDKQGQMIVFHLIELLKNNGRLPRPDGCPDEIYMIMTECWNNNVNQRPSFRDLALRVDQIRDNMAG

| SMILES | IC50 [1] | IC50 [2] | IC50 [3] | IC50 [4] |
| --- | --- | --- | --- | --- |
| Cn1cc(Nc2nccc(-c3ccc(NC(=O)C4CC4)nc3)n2)cn1 [TDM-180819, N-(5-(2-((1-methyl-1H-pyrazol-4-yl)amino)pyrimidin-4-yl)pyridin-2-yl)cyclopropylcarboxamide] | 0.1 to 1 µM | 1 to 10 µM | 0.1 to 1 µM | 0.1 to 1 µM |
| Cn1cc(Nc2nccc(-c3ccc(C(=O)NC4CC4(F)F)cc3)n2)cn1 (stereo not drawn) [TDM-180758, N-(2,2-difluorocyclopropyl)-4-(2-((1-methyl-1H-pyrazol-4-yl)amino)pyrimidin-4-yl)benzamide] | 1 to 10 µM | 1 to 10 µM | 0.1 to 1 µM | 1 to 10 µM |
| Cn1cc(Nc2nccc(-c3ccc(C(=O)NCC(F)(F)F)cc3)n2)cn1 [TDM-180748, 4-(2-((1-methyl-1H-pyrazol-4-yl)amino)pyrimidin-4-yl)-N-(2,2,2-trifluoroethyl)benzamide] | 0.1 to 1 µM | 1 to 10 µM | 0.1 to 1 µM | 0.1 to 1 µM |
| Cn1cc(Nc2nccc(-c3ccc(NC(=O)CC4CC4)cc3)n2)cn1 [TDM-180804, 2-cyclopropyl-N-(4-(2-((1-methyl-1H-pyrazol-4-yl)amino)pyrimidin-4-yl)phenyl)acetamide] | 0.1 to 1 µM | 1 to 10 µM | 0.1 to 1 µM | 0.1 to 1 µM |
| Cn1cc(Nc2nccc(-c3ccc(C(=O)NCC#N)nc3)n2)cn1 [TDM-180762, N-(cyanomethyl)-5-(2-((1-methyl-1H-pyrazol-4-yl)amino)pyrimidin-4-yl)pyridinecarboxamide] | 0.1 to 1 µM | 1 to 10 µM | 0.1 to 1 µM | 0.1 to 1 µM |
| C=CCS(=O)(=O)Nc1ccc(-c2ccnc(Nc3cnn(C)c3)n2)cc1 [TDM-180844, N-(4-(2-((1-methyl-1H-pyrazol-4-yl)amino)pyrimidin-4-yl)phenyl)prop-2-ene-1-sulfonamide] | 0.1 to 1 µM | 1 to 10 µM | 0.1 to 1 µM | 0.1 to 1 µM |
| Cn1cc(Nc2nccc(-c3ccc(NC(=O)C(F)F)nc3)n2)cn1 [TDM-180849, 2,2-difluoro-N-(5-(2-((1-methyl-1H-pyrazol-4-yl)amino)pyrimidin-4-yl)pyridin-2-yl)acetamide] | 0.1 to 1 µM | 1 to 10 µM | 0.1 to 1 µM | 0.1 to 1 µM |
| Cn1cc(Nc2nccc(-c3ccc(NC(=O)C4CCC4)nc3)n2)cn1 [TDM-180823, N-(5-(2-((1-methyl-1H-pyrazol-4-yl)amino)pyrimidin-4-yl)pyridin-2-yl)cyclobutanemethyl] | 1 to 10 µM | 1 to 10 µM | 0.1 to 1 µM | 1 to 10 µM |
| Cn1cc(Nc2nccc(-c3ccc(CNCC(F)(F)F)cc3)n2)cn1 [TDM-180760, N-(1-methyl-1H-pyrazol-4-yl)-4-(4-(((2,2,2-trifluoroethyl)amino)methyl)phenyl)pyrimidin-2-amine] | 0.1 to 1 µM | ≥ 10 µM | 0.1 to 1 µM | 1 to 10 µM |
| Cn1cc(Nc2nccc(-c3ccc(NC(=O)CC4CC4)nc3)n2)cn1 [TDM-180818, 2-cyclopropyl-N-(5-(2-((1-methyl-1H-pyrazol-4-yl)amino)pyrimidin-4-yl)pyridin-2-yl)acetamide] | 0.1 to 1 µM | 1 to 10 µM | 0.1 to 1 µM | 0.1 to 1 µM |
| CCS(=O)(=O)Nc1ccc(-c2ccnc(Nc3cnn(C)c3)n2)cc1 [TDM-180768, N-(4-(2-((1-methyl-1H-pyrazol-4-yl)amino)pyrimidin-4-yl)phenyl)ethanesulfonamide] | 0.1 to 1 µM | 1 to 10 µM | 0.1 to 1 µM | 0.1 to 1 µM |
| Cn1cc(Nc2nccc(-c3ccc(C(=O)NCC(F)(F)F)nc3)n2)cn1 [TDM-180756, 5-(2-((1-methyl-1H-pyrazole-4-yl)amino)pyrimidin-4-yl)-N-(2,2,2-trifluoroethyl)pyridinecarboxamide] | 0.1 to 1 µM | 1 to 10 µM | 0.1 to 1 µM | 0.1 to 1 µM |
| Cn1cc(Nc2nccc(-c3ccc(NC(=O)CC#N)nc3)n2)cn1 [TDM-180833, 2-cyano-N-(5-(2-((1-methyl-1H-pyrazol-4-yl)amino)pyrimidin-4-yl)pyridin-2-yl)acetamide] | 0.1 to 1 µM | 1 to 10 µM | 0.1 to 1 µM | 0.1 to 1 µM |
| Cn1cc(Nc2nccc(-c3ccc(NC(=O)C(F)F)cc3)n2)cn1 [TDM-180805, 2,2-difluoro-N-(4-(2-((1-methyl-1H-pyrazol-4-yl)amino)pyrimidin-4-yl)phenyl)acetamide] | 0.1 to 1 µM | 1 to 10 µM | 0.1 to 1 µM | 0.1 to 1 µM |
| COCC(=O)Nc1ccc(-c2ccnc(Nc3cnn(C)c3)n2)cc1 [TDM-180759, 2-methoxy-N-(4-(2-((1-methyl-1H-pyrazol-4-yl)amino)pyrimidin-4-yl)phenyl)acetamide] | 1 to 10 µM | ≥ 10 µM | 1 to 10 µM | 1 to 10 µM |

From patent US20240174648A1, “Small Molecule Compound” (Technoderma Medicines Pte Ltd, priority 2019, published 2024)
